In PubChem BioAssay (NCI):
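Interpolation was linear, between the two tested concentrations surrounding the appropriate level; five concentrations were tested over 48 hours in 96-well plates. TGI: total growth inhibition.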

Experiments:
Assay in all cases: NCI anticancer screen, dose series, 48 h
ACHN renal = test system: ACHN renal
CCRF-CEM leukemia = test system: CCRF-CEM leukemia
COLO 205 colon = test system: COLO 205 colon
EKVX NSCLC = test system: EKVX NSCLC
HCT-116 colon = test system: HCT-116 colon
HCT-15 colon = test system: HCT-15 colon
KM12 colon = test system: KM12 colon
M14 melanoma = test system: M14 melanoma
MALME-3M melanoma = test system: MALME-3M melanoma
MDA-MB-231 breast = test system: MDA-MB-231 breast
NCI-H226 lung = test system: NCI-H226 lung
NCI-H460 lung = test system: NCI-H460 lung
OVCAR-8 ovarian = test system: OVCAR-8 ovarian
SK-MEL-5 melanoma = test system: SK-MEL-5 melanoma
SN12C renal = test system: SN12C renal
SR leukemia = test system: SR leukemia
SW-620 colon = test system: SW-620 colon
TK-10 renal = test system: TK-10 renal
UACC-62 melanoma = test system: UACC-62 melanoma

SMILES | TGI (ACHN renal) [µM] | TGI (CCRF-CEM leukemia) [µM] | TGI (COLO 205 colon) [µM] | TGI (EKVX NSCLC) [µM] | TGI (HCT-116 colon) [µM] | TGI (HCT-15 colon) [µM] | TGI (KM12 colon) [µM] | TGI (M14 melanoma) [µM] | TGI (MALME-3M melanoma) [µM] | TGI (MDA-MB-231 breast) [µM] | TGI (NCI-H226 lung) [µM] | TGI (NCI-H460 lung) [µM] | TGI (OVCAR-8 ovarian) [µM] | TGI (SK-MEL-5 melanoma) [µM] | TGI (SN12C renal) [µM] | TGI (SR leukemia) [µM] | TGI (SW-620 colon) [µM] | TGI (TK-10 renal) [µM] | TGI (UACC-62 melanoma) [µM]
Cc1cc(C)nc(NS(=O)(=O)c2ccc(NC(=O)c3ccc4nc5ccccc5c(Nc5ccc(S(=O)(=O)Nc6nc(C)cc(C)n6)cc5)c4c3)cc2)n1 | > 100 | > 100 | > 100 | > 100 | > 100 | > 100 | > 100 | > 100 | > 100 | 53.9 | > 100 | > 100 | > 100 | > 100 | > 100 | > 100 | > 100 | > 100 | > 100
NNC(=O)CSc1nnc(CCCCCCCCc2nnc(SCC(=O)NN)o2)o1 | > 100 | > 100 | > 100 | > 100 | > 100 | > 100 | > 100 | > 100 | > 100 | > 100 | > 100 | > 100 | > 100 | > 100 | > 100 | > 100 | > 100 | > 100 | > 100
Cc1cccc2c(=O)c3c(O)cc4c(c3n(C)c12)C=CC(C)(C)O4 | > 100 | > 100 | > 100 | > 100 | > 100 | > 100 | > 100 | > 100 | > 100 | > 100 | > 100 | > 100 | > 100 | > 100 | > 100 | 54.6 | > 100 | > 100 | > 100
Nc1c(O)c(C(=O)O)cc2ccccc12 | 64.3 | > 100 | 64.1 | > 100 | 32.2 | > 100 | > 100 | 35.2 | 29.6 | 28.8 | 99.8 | > 100 | > 100 | 27.9 | > 100 | > 100 | 32.3 | > 100 | 31.6
C=C(C)COC(=O)COCC(=O)OCC(=C)C | > 100 | > 100 | > 100 | > 100 | > 100 | > 100 | > 100 | > 100 | > 100 | > 100 | > 100 | > 100 | > 100 | > 100 | > 100 | > 100 | > 100 | > 100 | > 100
CCCCn1c2c(n(CCCC)c1=[Se])-c1c(n(CCCC)c(=[Se])n1CCCC)S[Se][Se]S2 | 30.9 | 55.6 | 39.4 | > 100 | > 56.2 | 27.9 | > 59.3 | > 59.9 | 15.4 | 32.2 | 39 | 29 | 30.5 | 34.6 | 65 | > 100 | 19.6 | 43.3 | 40.7
C/C(CC(O)(C(F)(F)F)C(F)(F)F)=N/Nc1ccc([N+](=O)[O-])cc1[N+](=O)[O-] | > 10 | > 10 | 3.85 | > 10 | 4.56 | > 10 | > 10 | > 10 | > 10 | 6.58 | 6.66 | > 10 | > 10 | 4 | > 10 | > 10 | > 10 | > 10 | > 10
CC(=O)Nc1ccc2c3c(cc(O)c2c1)N(C(=O)CCCCCC(=O)Nc1ccc2c4c(cc(O)c2c1)N(C(=O)OC(C)(C)C)CC4CCl)CC3CCl (stereo not given) | > 100 | 0.648 | 9.88 | > 100 | 14.4 | > 100 | 13.6 | 20.5 | 8.98 | 18.5 | 9.56 | > 21.2 | 15.2 | 2.98 | > 38.3 | 4.3 | > 100 | > 70.6 | 3.87
S=c1sscc1N1CCSc2ssc(=S)c21 | > 100 | > 100 | > 100 | 49.8 | > 100 | > 100 | > 100 | > 100 | > 100 | > 100 | > 100 | > 100 | 18.9 | > 100 | > 100 | > 100 | > 100 | 81.8 | > 100
COc1ccc(NC(C)=O)cc1N1C(=O)/C(=C\c2cccc(Oc3ccccc3)c2)SC1c1ccccc1 (stereo not given) | > 100 | 67.2 | 39.9 | > 100 | 23.8 | > 100 | > 100 | > 100 | > 100 | > 100 | > 100 | > 100 | 64.8 | > 100 | 64.6 | 29.4 | 71.1 | > 100 | > 100
